Experimental data: PubChem BioAssay AID330 (DTP/NCI, 2004)
Several values for one entry are separate records, joined by “and”; a condition that tells them apart may be missing. Equal entries are not always repeated. Inconclusive results and toxic doses are left out. How the source made its calls: active means survival T/C of 150% or more; inactive means T/C below 125% in these data.

Tested on: P388 leukemia ip, CD2F1 mice, survival T/C
Experiment: NCI In Vivo Anticancer Drug Screen. Data for tumor model P388 Leukemia (intraperitoneal) in CD2F1 (CDF1) mice
Details: endpoint: median survival time, higher = longer survival
Procedure, shortened: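 Mice carrying the transplanted tumor received test compound or vehicle. Survival was recorded in each group, and the value is the treated-group measurement divided by that of the vehicle-treated control group.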

[1] = dose: 50.0 mg/kg/injection, schedule: Q01DX009 (ip), vehicle: Klucel (hydroxypropylcellulose) (HPC)
[2] = dose: 100.0 mg/kg/injection, schedule: Q04DX002 (ip), vehicle: saline with Tween-80
[3] = dose: 12.5 mg/kg/injection, schedule: Q01DX009 (ip), vehicle: saline with Tween-80
[4] = dose: 25.0 mg/kg/injection, schedule: Q01DX009 (ip), vehicle: saline with Tween-80
[5] = dose: 50.0 mg/kg/injection, schedule: Q01DX009 (ip), vehicle: saline with Tween-80
[6] = dose: 25.0 mg/kg/injection, schedule: Q04DX002 (ip), vehicle: saline with Tween-80
[7] = dose: 50.0 mg/kg/injection, schedule: Q04DX002 (ip), vehicle: saline with Tween-80
[8] = dose: 100.0 mg/kg/injection, schedule: Q01DX009 (ip), vehicle: Klucel (hydroxypropylcellulose) (HPC)
[9] = dose: 200.0 mg/kg/injection, schedule: Q01DX009 (ip), vehicle: Klucel (hydroxypropylcellulose) (HPC)
[10] = dose: 50.0 mg/kg/injection, schedule: Q01DX005 (ip), vehicle: saline with Tween-80
[11] = dose: 100.0 mg/kg/injection, schedule: Q01DX005 (ip), vehicle: saline with Tween-80

Measured: T/C

N#CC1(Nc2ccccc2)CCCC1
inactive: dose: 3.13 mg/kg/injection, schedule: Q01DX009 (ip), vehicle: Klucel (hydroxypropylcellulose) (HPC) 104 % of control | dose: 6.25 mg/kg/injection, schedule: Q01DX009 (ip), vehicle: Klucel (hydroxypropylcellulose) (HPC) 104 % of control and 92 % of control and 96 % of control | dose: 12.5 mg/kg/injection, schedule: Q01DX009 (ip), vehicle: Klucel (hydroxypropylcellulose) (HPC) 100 % of control and 90 % of control and 98 % of control | dose: 25.0 mg/kg/injection, schedule: Q01DX009 (ip), vehicle: Klucel (hydroxypropylcellulose) (HPC) 100 % of control and 96 % of control | [1] 104 % of control

CC(C)c1cc2c(c(O)c1O)C13CCCC(C)(C)C1CC2OC3=O (stereo not drawn)
inactive: dose: 7.0 mg/kg/injection, schedule: Q01DX005 (ip), vehicle: saline with Tween-80 113 % of control | dose: 14.0 mg/kg/injection, schedule: Q01DX005 (ip), vehicle: saline with Tween-80 111 % of control | dose: 28.0 mg/kg/injection, schedule: Q01DX005 (ip), vehicle: saline with Tween-80 104 % of control

Brc1ccc2[nH]c3nc(N/N=C/c4cccnc4)nnc3c2c1
inactive: [2] 93 % of control | dose: 200.0 mg/kg/injection, schedule: Q04DX002 (ip), vehicle: saline with Tween-80 91 % of control | dose: 400.0 mg/kg/injection, schedule: Q04DX002 (ip), vehicle: saline with Tween-80 99 % of control

CCN1N=Nc2ccccc2C1O (stereo not drawn)
inactive: dose: 12.5 mg/kg/injection, schedule: Q04DX002 (ip), vehicle: saline 98 % of control | dose: 25.0 mg/kg/injection, schedule: Q04DX002 (ip), vehicle: saline 98 % of control | dose: 50.0 mg/kg/injection, schedule: Q04DX002 (ip), vehicle: saline 100 % of control

CC1CC2OC(=O)C3=C2C(CCC3)C12CC(c1ccoc1)OC2=O (stereo not drawn)
inactive: [3] 91 % of control | [4] 91 % of control and 89 % of control | [5] 93 % of control

Cc1cc(N(C)C)ccc1/C=C/c1ccnc2ccccc12
inactive: [6] 109 % of control | [7] 118 % of control | [2] 113 % of control

CC1(C)OC2(c3ccccc3)N(c3ccc([N+](=O)[O-])cc3)N=C(c3ccccc3)N2c2ccccc21 (stereo not drawn)
inactive: dose: 100.0 mg/kg/injection, schedule: Q01DX001 (ip), vehicle: saline with Tween-80 89 % of control | dose: 200.0 mg/kg/injection, schedule: Q01DX001 (ip), vehicle: saline with Tween-80 89 % of control | dose: 400.0 mg/kg/injection, schedule: Q01DX001 (ip), vehicle: saline with Tween-80 88 % of control

NNC(=O)c1cnn(-c2ccc(N(CCO)CCO)nn2)c1N
inactive: dose: 75.0 mg/kg/injection, schedule: Q01DX005 (ip), vehicle: other 107 % of control | dose: 150.0 mg/kg/injection, schedule: Q01DX005 (ip), vehicle: other 107 % of control | dose: 250.0 mg/kg/injection, schedule: Q01DX005 (oral), vehicle: water 104 % of control | dose: 300.0 mg/kg/injection, schedule: Q01DX005 (ip), vehicle: other 93 % of control | dose: 500.0 mg/kg/injection, schedule: Q01DX005 (oral), vehicle: water 110 % of control | dose: 1000.0 mg/kg/injection, schedule: Q01DX005 (oral), vehicle: water 103 % of control

O=c1[nH]c2ccc(Cl)cc2c2ccccc12
inactive: [1] 101 % of control | [8] 100 % of control | [9] 105 % of control

CSc1nc(Cl)c(Br)c(N2CC2)n1
inactive: [10] 100 % of control | [11] 107 % of control

CCC1=CC2CC(c3cc4c(cc3OC)N(C)C3C(O)(C(=O)NC)C(OC(C)=O)C5(CC)C=CCN6CCC43C65)c3[nH]c4ccccc4c3CCN(C1)C2 (stereo not drawn)
inactive: dose: 0.06 mg/kg/injection, schedule: Q01DX009 (ip), vehicle: water 101 % of control | dose: 0.13 mg/kg/injection, schedule: Q01DX009 (ip), vehicle: water 101 % of control | dose: 0.25 mg/kg/injection, schedule: Q01DX009 (ip), vehicle: water 95 % of control | dose: 0.5 mg/kg/injection, schedule: Q01DX009 (ip), vehicle: water 89 % of control | dose: 1.0 mg/kg/injection, schedule: Q01DX009 (ip), vehicle: water 94 % of control | dose: 2.0 mg/kg/injection, schedule: Q01DX001 (ip), vehicle: water 103 % of control | dose: 2.0 mg/kg/injection, schedule: Q01DX009 (ip), vehicle: water 97 % of control | dose: 4.0 mg/kg/injection, schedule: Q01DX001 (ip), vehicle: water 99 % of control | dose: 8.0 mg/kg/injection, schedule: Q01DX001 (ip), vehicle: water 98 % of control | dose: 16.0 mg/kg/injection, schedule: Q01DX001 (ip), vehicle: water 94 % of control | dose: 25.0 mg/kg/injection, schedule: Q01DX001 (ip), vehicle: other 91 % of control | dose: 32.0 mg/kg/injection, schedule: Q01DX001 (ip), vehicle: water 100 % of control | dose: 100.0 mg/kg/injection, schedule: Q01DX001 (ip), vehicle: other 91 % of control | dose: 200.0 mg/kg/injection, schedule: Q01DX001 (ip), vehicle: other 94 % of control | dose: 400.0 mg/kg/injection, schedule: Q01DX001 (ip), vehicle: other 94 % of control

O=c1ncc(F)cn1C1OC(CO)C(O)C1O (stereo not drawn)
inactive: dose: 1.5 mg/kg/injection, schedule: Q01DX009 (ip), vehicle: Klucel (hydroxypropylcellulose) (HPC) 106 % of control | dose: 3.0 mg/kg/injection, schedule: Q01DX009 (ip), vehicle: Klucel (hydroxypropylcellulose) (HPC) 87 % of control | dose: 6.0 mg/kg/injection, schedule: Q01DX009 (ip), vehicle: Klucel (hydroxypropylcellulose) (HPC) 86 % of control

O=[N+]([O-])c1cnc2ccccn12
inactive: [3] 100 % of control | [4] 93 % of control | [5] 94 % of control | dose: 100.0 mg/kg/injection, schedule: Q01DX009 (ip), vehicle: saline with Tween-80 95 % of control

C=CCC1(O)CC2NC(C1)[C@@H]1OC(C)(C)O[C@H]21 (stereo partly drawn)
inactive: dose: 50.0 mg/kg/injection, schedule: Q01DX005 (ip), vehicle: Klucel (hydroxypropylcellulose) (HPC) 92 % of control | dose: 100.0 mg/kg/injection, schedule: Q01DX005 (ip), vehicle: Klucel (hydroxypropylcellulose) (HPC) 87 % of control | dose: 200.0 mg/kg/injection, schedule: Q01DX005 (ip), vehicle: Klucel (hydroxypropylcellulose) (HPC) 94 % of control

O=C(CCN1CCOCC1)Nc1ccc(F)cc1F
inactive: [10] 99 % of control | [11] 94 % of control | dose: 200.0 mg/kg/injection, schedule: Q01DX005 (ip), vehicle: saline with Tween-80 94 % of control

COC(=O)c1ncn(Cc2ccccc2)c1N
inactive: [6] 101 % of control | [7] 91 % of control | [2] 104 % of control and 93 % of control

Brc1ccc(-c2cc(-c3cccs3)cc(-c3ccccc3)n2)cc1
inactive: [1] 100 % of control | [8] 108 % of control | [9] 101 % of control

CN(C)c1ccc(C2NC(C(=O)O)CS2)cc1 (stereo not drawn)
inactive: dose: 50.0 mg/kg/injection, schedule: Q01DX009 (ip), vehicle: suspension in saline 91 % of control | dose: 100.0 mg/kg/injection, schedule: Q01DX009 (ip), vehicle: suspension in saline 100 % of control | dose: 200.0 mg/kg/injection, schedule: Q01DX009 (ip), vehicle: suspension in saline 100 % of control

CCOC(=O)c1c(N)[nH]c(SSc2[nH]c(N)c(C(=O)OCC)c2C(=O)OCC)c1C(=O)OCC
inactive: dose: 75.0 mg/kg/injection, schedule: Q01DX009 (ip), vehicle: saline 118 % of control | dose: 300.0 mg/kg/injection, schedule: Q01DX009 (ip), vehicle: saline 100 % of control
